Laboratory results from patent US20230159569A1, “DUAL HDAC6/PROTEASOME INHIBITORS, AND METHODS OF USE THEREOF” (UNIVERSITY OF MARYLAND, BALTIMORE, priority 2021, published 2023).

Assays:
HDAC6 = target: T1, HDAC6 (Homo sapiens, UniProt Q9UBN7); experiment: HDAC activity assay (microfluidics mobility shift), HDAC6; format: biochemical; conditions: for HDAC1/HDAC6 (HDAC1 IC50/HDAC6 IC50, selectivity for HDAC6) / IC50: covalent dual inhibitors; for inhibition at 1 µM: compound concentration 1 μM, non-covalent dual inhibitors
T1 sequence (Q9UBN7 1-1215): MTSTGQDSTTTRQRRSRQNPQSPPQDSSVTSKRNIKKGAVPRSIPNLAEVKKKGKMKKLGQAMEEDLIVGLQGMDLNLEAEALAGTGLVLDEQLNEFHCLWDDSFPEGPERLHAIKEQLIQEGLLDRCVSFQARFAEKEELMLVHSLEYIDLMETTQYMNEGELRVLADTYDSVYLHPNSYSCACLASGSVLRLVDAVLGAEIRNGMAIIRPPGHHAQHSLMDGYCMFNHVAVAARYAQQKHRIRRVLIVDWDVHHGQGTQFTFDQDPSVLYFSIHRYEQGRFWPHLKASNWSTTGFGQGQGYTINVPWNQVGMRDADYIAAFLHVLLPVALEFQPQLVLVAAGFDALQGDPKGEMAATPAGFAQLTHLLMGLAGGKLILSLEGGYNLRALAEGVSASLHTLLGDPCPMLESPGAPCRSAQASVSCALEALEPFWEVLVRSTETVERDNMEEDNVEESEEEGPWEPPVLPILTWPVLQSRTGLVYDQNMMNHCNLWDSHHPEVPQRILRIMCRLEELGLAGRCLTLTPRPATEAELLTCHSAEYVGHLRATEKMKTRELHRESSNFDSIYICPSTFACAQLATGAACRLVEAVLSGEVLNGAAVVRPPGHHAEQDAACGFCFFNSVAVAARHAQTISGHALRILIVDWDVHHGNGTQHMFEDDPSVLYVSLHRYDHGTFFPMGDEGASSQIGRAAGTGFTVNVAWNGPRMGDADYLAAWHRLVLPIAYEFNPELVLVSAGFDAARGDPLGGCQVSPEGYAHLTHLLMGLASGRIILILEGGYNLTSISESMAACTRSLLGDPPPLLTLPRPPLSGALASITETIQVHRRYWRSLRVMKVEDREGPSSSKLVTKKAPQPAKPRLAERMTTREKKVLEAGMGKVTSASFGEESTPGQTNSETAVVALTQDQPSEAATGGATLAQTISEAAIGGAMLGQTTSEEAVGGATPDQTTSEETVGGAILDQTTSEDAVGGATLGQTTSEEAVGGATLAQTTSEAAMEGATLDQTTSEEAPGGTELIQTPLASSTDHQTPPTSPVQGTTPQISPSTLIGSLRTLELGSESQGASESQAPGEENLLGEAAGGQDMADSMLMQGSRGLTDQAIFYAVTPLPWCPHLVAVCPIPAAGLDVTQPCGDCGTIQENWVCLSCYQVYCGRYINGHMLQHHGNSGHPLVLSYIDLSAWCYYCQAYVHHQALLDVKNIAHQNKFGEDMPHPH
Protocol: (§1) HDAC ACTIVITY ASSAYS: HDAC activity is measured using a microfluidics mobility shift platform. A fluorescently labeled substrate is reacted with the enzyme along with addition of test compounds followed by reading through microfluidic chips. Enzyme activity is determined through quantitative comparison of the […] that results from enzymatic activity.
(§2) The concentration of each non-covalent inhibitor compound tested in this study was 1 μM.

HDAC1 = HDAC1 (Homo sapiens, UniProt Q13547); experiment: HDAC activity assay (microfluidics mobility shift), HDAC1; format: biochemical; conditions: compound concentration 1 μM; non-covalent dual inhibitors
Protocol: as §1, §2

Sequence of HDAC1 (Q13547 whole entry): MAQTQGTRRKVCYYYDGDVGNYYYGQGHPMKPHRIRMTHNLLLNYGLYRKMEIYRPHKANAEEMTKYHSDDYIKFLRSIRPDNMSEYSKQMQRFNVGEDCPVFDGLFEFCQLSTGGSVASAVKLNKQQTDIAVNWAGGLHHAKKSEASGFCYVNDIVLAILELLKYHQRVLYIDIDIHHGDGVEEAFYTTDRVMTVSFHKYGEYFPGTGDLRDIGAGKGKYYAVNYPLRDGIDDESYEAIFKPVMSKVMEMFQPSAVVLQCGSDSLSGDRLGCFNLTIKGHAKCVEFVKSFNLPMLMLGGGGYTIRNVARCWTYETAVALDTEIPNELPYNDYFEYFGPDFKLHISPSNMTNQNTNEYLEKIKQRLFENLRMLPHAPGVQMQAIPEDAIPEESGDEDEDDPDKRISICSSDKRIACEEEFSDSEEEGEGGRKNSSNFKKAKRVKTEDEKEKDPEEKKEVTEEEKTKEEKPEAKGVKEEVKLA

SMILES | HDAC1/HDAC6 (HDAC1 IC50/HDAC6 IC50, selectivity for HDAC6) (HDAC6) | IC50 (HDAC6) | inhibition at 1 µM (HDAC1) | inhibition at 1 µM (HDAC6) | potency and selectivity for HDAC6 (HDAC6; FIG. 11, fold improvement over HDAC1 inhibition)
C[C@H](NC(=O)[C@H](CC(=O)NCC(C)(C)C)NC(=O)C(=O)c1c[nH]c2ccccc12)C(=O)NCc1ccc(F)cc1F [AMC-2-052] | – | – | 41% | 59% | –
CC(C)C[C@H](NC(=O)[C@H](Cc1ccccc1)NC(=O)c1ccc(/C=C/C(=O)NO)cc1)B1OC2C[C@H]3C[C@H](C3(C)C)[C@@]2(C)O1 (stereo partly drawn) [AMC-3-041] | 0.93 | 61 nM | – | – | –
C[C@H](NC(=O)[C@H](CC(=O)NCC(C)(C)C)NC(=O)CCCCCCC(=O)O)C(=O)NCc1ccc(F)cc1F [AMC-2-204] | – | – | 3% | 8% | –
COC(=O)CCCCCCC(=O)N[C@@H](CC(=O)NCC(C)(C)C)C(=O)N[C@@H](C)C(=O)NCc1ccc(F)cc1F [AMC-2-198] | – | – | 1% | 8% | –
C[C@H](NC(=O)[C@H](CC(=O)NCC(C)(C)C)NC(=O)CCC(=O)Nc1ccc(C(=O)NO)cc1)C(=O)NCc1ccc(F)cc1F [AMC-2-036] | – | – | 61% | 95% | highly potent
C[C@H](NC(=O)[C@H](CC(=O)NCC(C)(C)C)NC(=O)c1ccc(C(=O)Nc2ccccc2N)cc1)C(=O)NCc1ccc(F)cc1F [AMC-2-091] | – | – | 65% | 13% | –
C[C@H](NC(=O)[C@H](CC(=O)NCC(C)(C)C)NC(=O)c1ccc(C(=O)O)cc1)C(=O)NCc1ccc(F)cc1F [AMC-2-225] | – | – | -3% | 4% | –
C[C@H](NC(=O)[C@H](CC(=O)NCC(C)(C)C)NC(=O)CCCCCCC(=O)NO)C(=O)NCc1ccc(F)cc1F [AMC-2-067] | – | – | 74% | 86% | –
COC(=O)c1ccc(C(=O)N[C@@H](CC(=O)NCC(C)(C)C)C(=O)N[C@@H](C)C(=O)NCc2ccc(F)cc2F)cc1 [AMC-2-152] | – | – | 3% | 18% | –

The remaining lines, values ahead:

HDAC1/HDAC6 (HDAC1 IC50/HDAC6 IC50, selectivity for HDAC6) (HDAC6) | IC50 (HDAC6) | inhibition at 1 µM (HDAC1) | inhibition at 1 µM (HDAC6) | potency and selectivity for HDAC6 (HDAC6; FIG. 11, fold improvement over HDAC1 inhibition) | SMILES
2.30 | 1150 nM | – | – | – | CCNC(=O)ONC(=O)/C=C/c1ccc(C(=O)NCC(=O)N[C@@H](CC(C)C)B2OC3C[C@H]4C[C@H](C4(C)C)[C@@]3(C)O2)cc1 (stereo partly drawn) [AMC-3-055]
>5.58 | 5380 nM | – | – | – | CCNC(=O)ONC(=O)c1ccc(C(=O)NCC(=O)N[C@@H](CC(C)C)B2OC3C[C@H]4C[C@H](C4(C)C)[C@@]3(C)O2)cc1 (stereo partly drawn) [AMC-3-048]
8.77 | 3420 nM | – | – | – | CC(C)C[C@H](NC(=O)CNC(=O)c1ccc(C(=O)NOC(=O)NCc2ccccc2)cc1)B1OC2C[C@H]3C[C@H](C3(C)C)[C@@]2(C)O1 (stereo partly drawn) [AMC-3-047]
>33.9 | 884 nM | – | – | – | CC(C)C[C@H](NC(=O)CNC(=O)c1ccc(C(=O)NOC(=O)Nc2ccccc2)cc1)B1OC2C[C@H]3C[C@H](C3(C)C)[C@@]2(C)O1 (stereo partly drawn) [AMC-3-030]
4.75 | 6320 nM | – | – | – | CC(C)C[C@H](NC(=O)[C@H](Cc1ccccc1)NC(=O)c1ccc(C(=O)NOC(=O)NCc2ccccc2)cc1)B1OC2C[C@H]3C[C@H](C3(C)C)[C@@]2(C)O1 (stereo partly drawn) [AMC-3-033]
20.4 | 258 nM | – | – | – | CC(C)C[C@H](NC(=O)CNC(=O)c1ccc(C(=O)NO)cc1)B1OC2C[C@H]3C[C@H](C3(C)C)[C@@]2(C)O1 (stereo partly drawn) [AMC-3-031]
14.3 | 198 nM | – | – | – | CC(C)C[C@H](NC(=O)[C@H](Cc1ccccc1)NC(=O)c1ccc(C(=O)NO)cc1)B1OC2C[C@H]3C[C@H](C3(C)C)[C@@]2(C)O1 (stereo partly drawn) [AMC-3-017]
– | > 30000 nM | – | – | – | CC(C)C[C@H](NC(=O)[C@H](Cc1ccccc1)NC(=O)c1ccc(C(=O)NOC2CCCCO2)cc1)B1OC2C[C@H]3C[C@H](C3(C)C)[C@@]2(C)O1 (stereo partly drawn) [AMC-2-248]
>3.69 | 8120 nM | – | – | – | CCNC(=O)ONC(=O)c1ccc(C(=O)N[C@@H](Cc2ccccc2)C(=O)N[C@@H](CC(C)C)B2OC3C[C@H]4C[C@H](C4(C)C)[C@@]3(C)O2)cc1 (stereo partly drawn) [AMC-3-019]
